System: NOMO1
Assay: cell viability relative to DMSO control; higher = less cytotoxic
Settings: 48 h
Summary of the method: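 Viability, reported as a per-plate percentage of DMSO wells with cell-free wells as background, came from CellTiter-Glo One luminescence. Reading took place after 48 h at 37°C. Before that, NOMO1 or SEM (500 cells/well) or P12-Ichikawa (1000 cells/well) leukemia cells, adapted for at least four passages in each medium, were seeded in 1536-well plates (5 μl) and pin-dosed with library compounds in DMSO, 47 μM to 0.79 nM over 11 threefold points.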

[1] = HPLM + 10% dialyzed FBS, 0.000781 µM
[2] = HPLM + 10% dialyzed FBS, 0.00234 µM
[3] = HPLM + 10% dialyzed FBS, 0.00702 µM
[4] = HPLM + 10% dialyzed FBS, 0.0211 µM
[5] = HPLM + 10% dialyzed FBS, 0.0632 µM
[6] = HPLM + 10% dialyzed FBS, 0.19 µM
[7] = HPLM + 10% dialyzed FBS, 0.569 µM
[8] = HPLM + 10% dialyzed FBS, 1.71 µM
[9] = HPLM + 10% dialyzed FBS, 5.12 µM
[10] = HPLM + 10% dialyzed FBS, 15.4 µM
[11] = HPLM + 10% dialyzed FBS, 46.1 µM
[12] = RPMI 5 mM glucose + 10% FBS, 0.000781 µM
[13] = RPMI 5 mM glucose + 10% FBS, 0.00234 µM
[14] = RPMI 5 mM glucose + 10% FBS, 0.00702 µM
[15] = RPMI 5 mM glucose + 10% FBS, 0.0211 µM
[16] = RPMI 5 mM glucose + 10% FBS, 0.0632 µM
[17] = RPMI 5 mM glucose + 10% FBS, 0.19 µM
[18] = RPMI 5 mM glucose + 10% FBS, 0.569 µM
[19] = RPMI 5 mM glucose + 10% FBS, 1.71 µM
[20] = RPMI 5 mM glucose + 10% FBS, 5.12 µM
[21] = RPMI 5 mM glucose + 10% FBS, 15.4 µM
[22] = RPMI 5 mM glucose + 10% FBS, 46.1 µM
[23] = RPMI 5 mM glucose + 10% dialyzed FBS, 0.000781 µM
[24] = RPMI 5 mM glucose + 10% dialyzed FBS, 0.00234 µM
[25] = RPMI 5 mM glucose + 10% dialyzed FBS, 0.00702 µM
[26] = RPMI 5 mM glucose + 10% dialyzed FBS, 0.0211 µM
[27] = RPMI 5 mM glucose + 10% dialyzed FBS, 0.0632 µM
[28] = RPMI 5 mM glucose + 10% dialyzed FBS, 0.19 µM
[29] = RPMI 5 mM glucose + 10% dialyzed FBS, 0.569 µM
[30] = RPMI 5 mM glucose + 10% dialyzed FBS, 1.71 µM
[31] = RPMI 5 mM glucose + 10% dialyzed FBS, 5.12 µM
[32] = RPMI 5 mM glucose + 10% dialyzed FBS, 15.4 µM
[33] = RPMI 5 mM glucose + 10% dialyzed FBS, 46.1 µM

Structure (SMILES) | cell viability [1] [%] | cell viability [2] [%] | cell viability [3] [%] | cell viability [4] [%] | cell viability [5] [%] | cell viability [6] [%] | cell viability [7] [%] | cell viability [8] [%] | cell viability [9] [%] | cell viability [10] [%] | cell viability [11] [%] | cell viability [12] [%] | cell viability [13] [%] | cell viability [14] [%] | cell viability [15] [%] | cell viability [16] [%] | cell viability [17] [%] | cell viability [18] [%] | cell viability [19] [%] | cell viability [20] [%] | cell viability [21] [%] | cell viability [22] [%] | cell viability [23] [%] | cell viability [24] [%] | cell viability [25] [%] | cell viability [26] [%] | cell viability [27] [%] | cell viability [28] [%] | cell viability [29] [%] | cell viability [30] [%] | cell viability [31] [%] | cell viability [32] [%] | cell viability [33] [%]
CO/N=C(\C(=O)N[C@@H]1C(=O)N2C(C(=O)OCOC(=O)C(C)(C)C)=C(/C=C\c3scnc3C)CS[C@H]12)c1csc(N)n1 | 81.6 | 111 | 103 | 93.3 | 102 | 87.7 | 109 | 102 | 106 | 81.7 | 42.9 | 81 | 106 | 92.8 | 98.9 | 104 | 104 | 99.4 | 92.5 | 95 | 84.6 | 58.2 | 72.8 | 83.9 | 88 | 80.9 | 91.1 | 83.9 | 96.2 | 99.1 | 88 | 70 | 48.6
COc1cc(C)c(Sc2cnc(NC(=O)c3ccc(CNC(C)C(C)C)cc3)s2)cc1C(=O)N1CCN(C(C)=O)CC1 (stereo not given) |  |  |  |  |  |  |  |  |  |  |  | 117 | 119 | 128 | 131 | 117 | 126 | 134 | 108 | 105 | 107 | 126 |  |  |  |  |  |  |  |  |  |  | 
O=C(/C=C/c1ccc(O)cc1)c1ccc(O)cc1O | 138 | 116 | 117 | 110 | 104 | 126 | 128 | 97.2 | 106 | 82.4 | 46.8 | 112 | 105 | 101 | 109 | 113 | 110 | 119 | 98.8 | 103 | 96.1 | 86.6 | 120 | 103 | 109 | 106 | 107 | 110 | 110 | 88.4 | 102 | 109 | 70.2
OCCn1cc(-c2cnc3nnn(Cc4ccc5ncccc5c4)c3n2)cn1 | 106 | 104 | 123 | 110 | 102 | 118 | 92.2 | 103 | 92.1 | 89.7 | 63.2 | 99.4 | 110 | 112 | 99.9 | 93.2 | 116 | 110 | 107 | 102 | 105 | 96.5 | 93.3 | 105 | 103 | 112 | 105 | 91.7 | 97.1 | 103 | 86.8 | 80.6 | 82.2
O=C(Nc1cccnn1)N1CCC(=Cc2cccc(Oc3ccc(C(F)(F)F)cn3)c2)CC1 | 72.8 | 98.3 | 109 | 47.4 | 122 | 117 | 113 | 124 | 110 | 102 | 110 | 83.4 | 98.3 | 96.3 | 21.7 | 90.8 | 112 | 91.6 | 97.7 | 98.1 | 96.2 | 94.2 | 91 | 85.3 | 94.4 | 75.4 | 103 | 97.4 | 109 | 106 | 96.5 | 103 | 100
O=C1NC(=O)/C(=C/c2ccc(-c3ccc(F)cc3O)o2)S1 | 106 | 126 | 125 | 130 | 127 | 114 | 125 | 91.8 | 103 | 82.7 | 72.9 | 113 | 108 | 104 | 114 | 112 | 105 | 103 | 94.7 | 95.7 | 92.7 | 84.9 | 112 | 117 | 114 | 103 | 113 | 116 | 91.6 | 93.9 | 91.7 | 75.8 | 66.9
OC1=CC2=C(C(=C1)O)C(=O)\C(=C(/O2)C3=CC(=C(O)C=C3)O)O | 97.5 | 104 | 102 | 112 | 125 | 117 | 116 | 99.7 | 118 | 110 | 109 | 98.1 | 105 | 115 | 90.8 | 110 | 108 | 106 | 110 | 95.4 | 90.5 | 97.9 | 98.2 | 98 | 109 | 107 | 104 | 118 | 110 | 104 | 107 | 106 | 102
Cc1ccc2c(c1)c1c(n2CCc2ccc(C)nc2)CCN(C)C1 | 126 | 115 | 111 | 130 | 128 | 130 | 141 | 134 | 141 | 153 | 127 |  |  |  |  |  |  |  |  |  |  |  |  |  |  |  |  |  |  |  |  |  | 

From the supplement of paper PMC11451515
